# Measured values: patent US8883500B2, “Method of preparing adenosine-resistant anti-tumor T lymphocytes for adoptive immunotherapy” (Northeastern University, priority 2008, dated 2014)
# Where “and” joins values, the source holds several entries; their conditions need not be identical. Equal values may be shown once.
# What was measured:
# [1] = system: A2A/A2B adenosine receptor; test: cAMP assay in CTL; format: cell-based, mice; settings: control CTL; cAMP inducer 10 μM (FIG. 6 legend), 15 min
# Protocol: Stimulation of cAMP production and measurement of cAMP levels were performed as described previously (Apasov et al., 2000). […]; from Tocris, Ellisville, Mo.), or forskolin (adenylate cyclase activator; from Sigma). […]
# [2] = system: CTL; test: IFN-γ production from CTL restimulated by immobilized anti-CD3 and anti-CD28 mAbs (ELISA); format: cell-based, mice; parameters: IFN-γ levels (%) of corresponding CTL without CGS/NECA / IFN-γ levels (%), None (reference = 100): unit of the concentration uncertain; settings: for IFN-γ levels (%) of corresponding CTL without CGS/NECA: anti-CD3/anti-CD28 24 h in presence of the agonist (10 (unit uncertain)); for IFN-γ production: control CTL restimulated with anti-CD3 mAb, agonist 10 μM; for IFN-γ levels: restimulation without agonist (None); for IFN-γ levels (%), None (reference = 100): no agonist at restimulation
# Protocol: CTL (2×10^5 cells) were washed twice with media and restimulated by plate-bound anti-CD3 and anti-CD28 monoclonal antibodies (mAb) (BD Biosciences, San Diego, Calif.). Anti-CD3 mAb (2 μg ml^−1) and anti-CD28 mAb (1 μg ml^−1) diluted in PBS were immobilized in a flat-bottom 96-well plastic culture plate for 1 h at 37° C. before use. In order to examine anti-tumor cellular response, CTL (2×10^5 cells) were also cultured with mitomycin C-treated P815 mastocytoma (2.5×10^5 cells). […]. Culture supernatant after 24-48 h was assayed for IFN-γ levels by ELISA.
# [3] = system: CD8+ T cells; test: Flowcytometric analysis (CD8 proportion, intracellular IFN-γ staining); format: cell-based, mice; settings: for reduction of IFN-γ producers: control CTL, agonist 10 μM
# Protocol: Cells recovered from mixed lymphocyte culture were labeled with phycoerythrin-conjugated anti-CD8, allophycocyanin-conjugated anti-CD4 and fluorescein-conjugated anti-CD69 mAb, and were analyzed by FACSCalibur (BD Biosciences). Cytokine production from CTL was analyzed by intracellular staining as described (Nishimura et al., 1999). After the stimulation with immobilized anti-CD3 and anti-CD28 mAb for 24 h, cells were further incubated in the presence of brefeldin A (10 μg ml^−1) for 2 h. Cells were fixed with 4% parafolmaldehyde-PBS for 15 min, permeabilized with permeabilizing buffer (50 mM NaCl, 5 mM EDTA, 0.02% NaN3, 0.5% Triton X-100, 10 mM Tris-HCl, pH 7.5) for 15 min, and stained with fluorescein-labeled anti-IFN-γ mAb. IFN-γ-producing CD8^+ cells were identified by cell surface staining using phycoerythrin-conjugated anti-CD8 mAb. All antibodies were obtained from BD Biosciences.
# [4] = system: mixed lymphocyte culture of C57BL/6 and DBA/2 spleen cells (CTL); test: Mixed lymphocyte culture: cell proliferation ([3H] thymidine incorporation) and cell number; format: cell-based, mice; settings: for cell number, % of control: primary mixed lymphocyte culture 5 days
# Protocol: (§1) Antigen-specific cytotoxic T cells were induced by allogenic mixed lymphocyte culture using spleen cells from C57BL/6 (H-2^b) and DBA/2 (H-2^d) mice. Spleen cells from DBA/2 mice were pretreated with 50 μg ml^−1 mitomycin C (Sigma; St. Louis, Mo.) for 30 min at 37° C. After washing three times by centrifugation, 2×10^6 DBA/2 spleen cells (stimulator) were mixed with 6×10^6 C57BL/6 spleen cells (responder) in 2 ml of RPMI1640 medium containing 10% fetal calf serum. The cells were cultured for 5 days in a 12 well plastic plate. In some experiments, CTL (2×10^6 cells) were restimulated on day 5 using mitomycin C-treated DBA/2 spleen cells (4×10^6 cells). The restimulated cells were cultured for additional 2 days, and were analyzed on day 7.
# (§2) Culture supernatant was collected 5 days after the set up of mixed lymphocyte culture or 2 days after restimulation and was stored at 4° C. for subsequent measurement of interferon-γ (IFN-γ) levels. IFN-γ was quantified by ELISA (R&D Systems; Minneapolis, Minn.) according to manufacturer's instruction. Cells were incubated for additional 4 h in the presence of 1 μCi [3H] thymidine (American Radiolabeled Chemicals, St. Louis, Mo.) and radioactivity of incorporated thymidine was counted.
# [5] = system: mixed lymphocyte culture of C57BL/6 and DBA/2 spleen cells (CTL); test: IFN-γ levels in mixed lymphocyte culture supernatant (ELISA); format: cell-based, mice; settings: for IFN-γ levels in the culture supernatant, decreased to: primary mixed lymphocyte culture 5 days
# Protocol: as §1, §2
# [6] = system: P815 mastocytoma; test: Cytotoxicity assay, 51Cr release
# Protocol: Cytotoxicity of T cells against P815 mastocytoma (H-2^d) was determined by ^51Cr release assay. Initially, P815 cells (2×10^6) were incubated with 100 μCi [^51Cr] sodium chromate (Perkin Elmer, Boston, Mass.) for 1 h at 37° C. The cells were washed for three times by centrifugation to remove excess radioactivity. The labeled P815 cells (1×10^4 cells) were mixed with the effector cells recovered from mixed lymphocyte culture in a volume of 150 μl. […] Sedimentation of the cells in a v-bottom 96 well plate by brief centrifugation was followed by incubation at 37° C. After 4 h, ^51Cr release in the supernatant from target cells was counted using γ-radiation counter. Spontaneous ^51Cr release was measured by culturing target cells alone. Maximum ^51Cr release was measured by adding 1N hydrochloric acid to the same number of target cells. Cytotoxicity was calculated as percentage cell lysis when spontaneous and maximum ^51Cr release were set to 0% and 100%, respectively.
# [7] = CTL developed with NECA (0.1 (unit uncertain))
# [8] = CTL developed with NECA (1 (unit uncertain))
# [9] = CTL developed with NECA (10 (unit uncertain))
# [10] = NECA (0.1-1 μM) added only for 2 days after restimulation of 5-day CTL
compound,measurement,setting,value
CCNC(=O)[C@H]1O[C@@H](n2cnc3c(N)nc(NCCc4ccc(CCC(=O)O)cc4)nc32)[C@H](O)[C@@H]1O [CGS],increase of cAMP levels,[1],7.4 fold
same,IFN-γ levels (%) of corresponding CTL without CGS/NECA,[2]; [7],57 ± 8 %
same,IFN-γ levels (%) of corresponding CTL without CGS/NECA,[2]; [8],67 ± 10 %
same,IFN-γ levels (%) of corresponding CTL without CGS/NECA,[2]; [9],80 ± 13 %
same,IFN-γ levels (%) of corresponding CTL without CGS/NECA,[2]; Control CTL,44% and 44 ± 11%
same,IFN-γ production,[2],strongly inhibited
same,IFN-γ producing capacity retained,[2]; negatively selected NECA-CTL tested for inhibition by CGS,up to 80%
same,reduction of IFN-γ producers,[3],70%
"CCNC(=O)[C@H]1O[C@@H](n2cnc3c(N)ncnc32)[C@H](O)[C@@H]1O [NECA, 5′-N-ethylcarboxamidoadenosine]",proliferation of CTL after restimulation,[4]; [10],inhibit proliferation of CTL
same,"cell number, % of control",[4]; NECA 0.1 μM,78%
same,"cell number, % of control",[4]; NECA 1 μM,72%
same,"cell number, % of control",[4]; NECA 10 μM,68%
same,"Cell proliferation, [3H] thymidine incorporation, decreased to","[4]; primary mixed lymphocyte culture, 5 days in the presence of NECA (0.1-10 μM)",30-40%
same,IFN-γ levels in the culture supernatant after restimulation,[5]; [10],inhibit
same,"IFN-γ levels in the culture supernatant, decreased to",[5]; 10^−5 M NECA,18%
same,"IFN-γ levels in the culture supernatant, decreased to",[5]; 10^−7 M NECA,44%
same,increase of cAMP levels,[1],11.1 fold
same,IFN-γ levels,[2]; CTL developed with NECA 0.1 μM (table; 0.1 μM),3722 pg/mL
same,IFN-γ levels,[2]; CTL developed with NECA 1 mM (table; 1 μM),2327 pg/mL
same,IFN-γ levels,[2]; CTL developed with NECA 10 mM (table; 10 μM),1089 pg/mL
same,IFN-γ levels (%) of corresponding CTL without CGS/NECA,[2]; [7],44 ± 12 %
same,"IFN-γ levels (%), None (reference = 100)",[2]; [7],100 ± 23%
same,IFN-γ levels (%) of corresponding CTL without CGS/NECA,[2]; [8],56 ± 8 %
same,"IFN-γ levels (%), None (reference = 100)",[2]; [8],100 ± 19%
same,IFN-γ levels (%) of corresponding CTL without CGS/NECA,[2]; [9],60 ± 8 %
same,"IFN-γ levels (%), None (reference = 100)",[2]; [9],100 ± 5%
same,IFN-γ levels (%) of corresponding CTL without CGS/NECA,[2]; Control CTL,28 ± 7%
same,IFN-γ production,[2],strongly inhibited
same,proportion of CD8+ T cells in the expanded cells,[3]; NECA added only for 2 days after restimulation,unchanged from control CTL
same,reduction of IFN-γ producers,[3],70%
same,"Cytotoxicity, % of control","[6]; CTL from primary culture with 10^−5 M NECA, effector-target ratio 5:1",33%
same,cytotoxicity against P815,"[6]; NECA added only for 2 days after restimulation, effector-target ratio 5:1, 2.5:1, 1.25:1",not impaired
